Paper PMC4832243, “Discovery of Potent VEGFR-2 Inhibitors based on Furopyrimidine and Thienopyrimidne Scaffolds as Cancer Targeting Agents” (Scientific Reports, 2016)

Legend:
[1] = test system: VEGFR-2; conditions: read-out: VEGFR-2 IC50 of pyrrolo[3,2-d]pyrimidine derivative (III); cited from earlier work
[2] = test system: platelet-derived growth factor receptor-B (PDGFR-B); conditions: cited from earlier work
[3] = biological target: RET tyrosine kinase; parameters: method as in PMID 16507829; conditions: cited from earlier work
[4] = test system: wild-type b-Raf; conditions: read-out: wild-type b-Raf IC50; cited from earlier work
[5] = biological target: c-Raf (Homo sapiens, UniProt P04049); experiment: In vitro multiple-kinase inhibition assay, c-Raf; format: biochemical
Protocol: (§1) In vitro multiple-kinase inhibition assay. […] Kinase enzymatic activity of the tested compounds was evaluated against a reference kinase inhibitor at 10 μM (Table 2).
(§2) The multiple kinases activity at single dose concentration of 10 μM was performed, c-Kit, c-Raf, c-Src, RET served as the enzyme source. […] Kinase-Glo Plus Luminescence kinase assay kit (Promega#V3772), ADP-Glo Luminescence assay kit was used for c-kit assay (Supplementary). […]
(§3) mM MgCl2, 0.1 mg/ml BSA, 1 mM DTT, 10 µM ATP, Kinase substrate and VEGFR. After the enzymatic reaction, 50 µl of Kinase-Glo Plus Luminescence kinase assay solution (Promega) was added to each reaction and incubate the plate for 5 minutes at room temperature.
(§4) Luminescence signal was measured using a BioTek Synergy 2 microplate reader. VEGFR activity assays were performed in duplicate at each concentration.
(§5) The luminescence data were analyzed using the computer software, Graphpad Prism. The difference between luminescence intensities in the absence of VEGFR (Lut) and in the presence of VEGFR (Luc) was defined as 100 % activity (Lut – Luc). Using luminescence signal (Lu) in the presence of the compound, % activity was calculated as:
(§6) % activity = {(Lut - Lu)/(Lut - Luc)}×100%, where Lu= the luminescence intensity in the […]
(§7) IC50 determination for inhibitor against VEGFR was calculated. The values of % activity versus a series of compound concentrations (1 nM - 10 nM - 100 nM - 1 µM - 10 µM) were then […]
(§8) or Hill coefficient. The IC50 value was determined by the concentration causing a half-maximal […]
(§9) In vitro multiple-kinase inhibition assay
(§10) Luminescence signal was measured using a BioTek Synergy 2 microplate reader […]
(§11) The luminescence data were analyzed using the same computer software and the same protocol

[6] = biological target: fms-related tyrosine kinase 3 receptor (FLT3); conditions: cited from earlier work
[7] = Toxicity: vital organs' indices and histopathology in EAC solid tumor bearing mice; format: in vivo, Swiss albino mice; conditions: for Histopathological examination of liver, kidney, heart and brain samples: 10 mg/kg, EAC solid tumor bearing mice (40x); for Brain Index / Heart Index / Kidney Index / Liver Index: mean ± SD (n = 6)
[8] = test system: Ehrlich ascites carcinoma (EAC) solid tumor; experiment: In vivo anticancer activity, EAC solid tumor murine model; parameters: species or system Swiss albino mice; conditions: for Histopathological examination of EAC tumor sections (necrosis): hematoxylin-eosin, 40x; for TGI (%): once daily for 8 consecutive days
Protocol: Animals. Female Swiss albino mice weighing 15–20 g were used in the present study. They were obtained from the animal breeding laboratory, National Cancer Institute (NCI), Cairo University, Egypt. Animals were kept in our animal facility, faculty of pharmacy, Ain Shams university at 25 ± 2 °C and a relative humidity of 40–45% with alternative day and night cycles of 12 h each. Animals had free access to pellet food and water ad libitum. Standard diet pellets (El-Nasr, Abu Zaabal, Egypt) contained not less than 20% protein, 5% fiber, 3.5% fat, 6.5% ash and a vitamin mixture. Animal care and experiments were conducted in accordance with the protocols approved by the Ethics Research Committee, Faculty of Pharmacy, Ain Shams University, following the Institutional Animal Care and Use Committee guidelines.
Tumor cells preparation and transplantation. Ehrlich ascites carcinoma (EAC) cells were obtained from NCI, Cairo University, Egypt. EAC cells were maintained in the ascitic form in Swiss albino mice by intraperitoneal transplantation of each mouse every 10 days. Ascitic fluid was drawn from tumor-bearing mice at the log phase (7–8th day of tumor bearing) of the tumor cells. The freshly drawn fluid was diluted with ice-cold sterile isotonic saline. 200 μl tumor cell suspension containing 2 × 10^6 tumor cells were then subcutaneously injected in each mouse.
Experimental design. Swiss albino mice were divided into six groups (n = 6 per group).
Evaluation of effectiveness. Tumor growth curve was drawn according to the change in tumor volume from first day of treatment (day 0) till day 7. Longest and shortest diameters of the solid tumor were monitored using a digital vernier caliper. Tumor volume (TV) of each animal was calculated using the following formula: […]
Tumor growth inhibition (TGI) was calculated as follows.
RTV = (Tumor volume at the day of measurement)/Tumor volume at the initial day.
Histopathological Examination
thickness by slidge microtome.
graded ethanol solutions.

[9] = test system: stem cell factor receptor (c-KIT); conditions: cited from earlier work
[10] = biological target: phospho-VEGFR-2 (Tyr951) (Mus musculus, UniProt P35918); experiment: Immunohistochemistry of EAC solid tumor sections, phospho-VEGFR-2; conditions: oral treatment of EAC-bearing mice
[11] = test system: HUVEC umbilical vein endothelial cells; experiment: In vitro HUVEC anti-proliferative assay (alamarBlue); format: cell-based; conditions: Homo sapiens, HUVEC proliferation at 10 μM, 72 hours
[12] = biological target: c-Src (Homo sapiens, UniProt P12931); experiment: In vitro multiple-kinase inhibition assay, c-Src; format: biochemical
Protocol: as §1, §2, §3, §4, §5, §6, §7, §8, §9, §10, §11

[13] = biological target: c-Kit (Homo sapiens, UniProt P10721); experiment: In vitro multiple-kinase inhibition assay, c-Kit (ADP-Glo); format: biochemical
Protocol: as §1, §2, §3, §4, §5, §6, §7, §8, §9
The assay was performed using the same conditions for VEGFR-2 activity assay (section 5.2.1.1). The assays for c-Kit was an exception, it was performed using ADP-Glo Kinase assay reagents (Promega). It measures kinase activity by quantitating the ADP amount produced from the enzymatic reaction. The luminescent signal from the assay is correlated with the amount of ADP present and is directly correlated with the amount of kinase activity. Other conditions are same to the previous section except the final reaction volume was reduced to 25 µl. After the 40 min kinase reaction at 30 °C, 25 µl of ADP-Glo reagent was added and incubated for 45 min at room temperature followed by another 50 min incubation with 50 µl of Kinase detection mixture.
as §10, §11

[14] = biological target: RET (Homo sapiens, UniProt P07949); experiment: In vitro multiple-kinase inhibition assay, RET; format: biochemical
Protocol: as §1, §2, §3, §4, §5, §6, §7, §8, §9, §10, §11

[15] = test system: active caspase 3; experiment: Immunohistochemistry of EAC solid tumor sections, active caspase 3; conditions: oral treatment of EAC-bearing mice
[16] = biological target: T1, VEGFR-2 (KDR) (Homo sapiens, UniProt P35968); experiment: In vitro VEGFR-2 tyrosine kinase activity (Kinase-Glo Plus luminescence, BPS Bioscience); format: biochemical; conditions: 5 concentrations 1 nM - 10 μM
T1 construct: purchased BPS Bioscience 40301

[17] = test system: CD31 and CD34 (% MVD); experiment: Immunohistochemistry of EAC solid tumor sections, microvessel density (CD31, CD34); conditions: oral treatment of EAC-bearing mice
[18] = test system: VEGF-induced vascular permeability (Evans Blue extravasation); experiment: Miles vascular permeability assay; parameters: species or system mice; conditions: in vivo; 10 mg/kg (Fig. 15)
Protocol: Miles Vascular Permeability Assay. One to two days prior to the experiment, mice were shaved to expose the skin. Mice were anesthetized with intra-peritoneal injection of Avertin. A sterile solution of 1% Evans Blue (EB) in PBS was prepared and 100 μl was injected IV into the tail vein, using a needle (small gauge, 27–30) at a 10–15 degree angle. The animals were then left for (30–60) min. VEGF (50 μl of 1 ng/μl) and 50 μl of PBS with 0.05% gelatin were injected intradermally using a 30-gauge needle into the skin overlying the back. After 20 min, the animals were sacrificed by cervical dislocation that is recommended to limit significant interference with vascular permeability. The skin was opened, exposed and representative pictures were taken to assess the intensity of EB […]. The Formamide/EB mixture was centrifuged and supernatant absorbance was measured at 600 nm (Shimadzu Spectrophotometer, UV-1601; Japan). extravasation was calculated as ng EB per mg tissue.

Sequence of c-Raf (P04049 whole entry, species assumed): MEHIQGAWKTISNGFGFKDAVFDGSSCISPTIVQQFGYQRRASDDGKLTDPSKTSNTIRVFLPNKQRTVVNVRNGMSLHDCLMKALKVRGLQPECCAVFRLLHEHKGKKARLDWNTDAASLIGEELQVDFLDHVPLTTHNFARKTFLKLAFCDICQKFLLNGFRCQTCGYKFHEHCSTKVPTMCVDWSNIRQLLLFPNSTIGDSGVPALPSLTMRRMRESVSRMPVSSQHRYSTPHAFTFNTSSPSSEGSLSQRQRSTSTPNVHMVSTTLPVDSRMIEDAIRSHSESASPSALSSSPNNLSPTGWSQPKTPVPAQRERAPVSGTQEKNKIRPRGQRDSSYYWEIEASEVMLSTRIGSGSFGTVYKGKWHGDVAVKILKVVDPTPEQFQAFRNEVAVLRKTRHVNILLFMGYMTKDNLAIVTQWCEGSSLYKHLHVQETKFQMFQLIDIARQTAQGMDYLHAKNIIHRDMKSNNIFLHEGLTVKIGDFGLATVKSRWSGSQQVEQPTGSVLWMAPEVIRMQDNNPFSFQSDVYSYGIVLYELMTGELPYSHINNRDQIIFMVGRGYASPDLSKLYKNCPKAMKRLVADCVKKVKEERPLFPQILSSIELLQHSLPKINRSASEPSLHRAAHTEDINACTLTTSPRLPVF
Sequence of RET (P07949 29-1114, species assumed): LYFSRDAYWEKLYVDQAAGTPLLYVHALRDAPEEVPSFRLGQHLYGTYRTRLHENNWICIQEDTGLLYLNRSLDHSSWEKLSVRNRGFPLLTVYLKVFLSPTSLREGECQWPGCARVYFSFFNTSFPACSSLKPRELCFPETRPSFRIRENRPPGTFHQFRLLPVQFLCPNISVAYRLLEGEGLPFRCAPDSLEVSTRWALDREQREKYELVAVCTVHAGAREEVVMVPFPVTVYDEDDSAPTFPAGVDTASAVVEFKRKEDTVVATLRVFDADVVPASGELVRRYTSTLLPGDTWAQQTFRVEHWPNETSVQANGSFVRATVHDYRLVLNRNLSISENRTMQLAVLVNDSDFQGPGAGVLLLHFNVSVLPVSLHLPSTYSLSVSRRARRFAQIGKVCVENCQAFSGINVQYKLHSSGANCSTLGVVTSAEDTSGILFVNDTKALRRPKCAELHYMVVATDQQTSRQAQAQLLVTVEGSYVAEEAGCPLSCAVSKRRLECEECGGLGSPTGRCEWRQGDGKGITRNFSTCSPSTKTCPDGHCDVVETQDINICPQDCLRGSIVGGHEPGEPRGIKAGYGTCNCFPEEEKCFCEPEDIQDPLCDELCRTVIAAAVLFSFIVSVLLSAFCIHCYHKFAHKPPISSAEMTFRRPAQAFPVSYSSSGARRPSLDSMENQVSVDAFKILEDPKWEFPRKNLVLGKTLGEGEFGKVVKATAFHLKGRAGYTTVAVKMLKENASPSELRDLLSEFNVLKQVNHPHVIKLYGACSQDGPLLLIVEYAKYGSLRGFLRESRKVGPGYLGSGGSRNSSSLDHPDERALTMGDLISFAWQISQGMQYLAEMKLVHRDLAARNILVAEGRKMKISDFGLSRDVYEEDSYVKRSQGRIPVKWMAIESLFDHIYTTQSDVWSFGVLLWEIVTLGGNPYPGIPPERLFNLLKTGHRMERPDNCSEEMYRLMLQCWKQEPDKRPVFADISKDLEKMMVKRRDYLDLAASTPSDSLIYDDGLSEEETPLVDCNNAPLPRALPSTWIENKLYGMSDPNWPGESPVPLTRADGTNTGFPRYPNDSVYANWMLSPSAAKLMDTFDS
Sequence of phospho-VEGFR-2 (Tyr951) (P35918 20-1345): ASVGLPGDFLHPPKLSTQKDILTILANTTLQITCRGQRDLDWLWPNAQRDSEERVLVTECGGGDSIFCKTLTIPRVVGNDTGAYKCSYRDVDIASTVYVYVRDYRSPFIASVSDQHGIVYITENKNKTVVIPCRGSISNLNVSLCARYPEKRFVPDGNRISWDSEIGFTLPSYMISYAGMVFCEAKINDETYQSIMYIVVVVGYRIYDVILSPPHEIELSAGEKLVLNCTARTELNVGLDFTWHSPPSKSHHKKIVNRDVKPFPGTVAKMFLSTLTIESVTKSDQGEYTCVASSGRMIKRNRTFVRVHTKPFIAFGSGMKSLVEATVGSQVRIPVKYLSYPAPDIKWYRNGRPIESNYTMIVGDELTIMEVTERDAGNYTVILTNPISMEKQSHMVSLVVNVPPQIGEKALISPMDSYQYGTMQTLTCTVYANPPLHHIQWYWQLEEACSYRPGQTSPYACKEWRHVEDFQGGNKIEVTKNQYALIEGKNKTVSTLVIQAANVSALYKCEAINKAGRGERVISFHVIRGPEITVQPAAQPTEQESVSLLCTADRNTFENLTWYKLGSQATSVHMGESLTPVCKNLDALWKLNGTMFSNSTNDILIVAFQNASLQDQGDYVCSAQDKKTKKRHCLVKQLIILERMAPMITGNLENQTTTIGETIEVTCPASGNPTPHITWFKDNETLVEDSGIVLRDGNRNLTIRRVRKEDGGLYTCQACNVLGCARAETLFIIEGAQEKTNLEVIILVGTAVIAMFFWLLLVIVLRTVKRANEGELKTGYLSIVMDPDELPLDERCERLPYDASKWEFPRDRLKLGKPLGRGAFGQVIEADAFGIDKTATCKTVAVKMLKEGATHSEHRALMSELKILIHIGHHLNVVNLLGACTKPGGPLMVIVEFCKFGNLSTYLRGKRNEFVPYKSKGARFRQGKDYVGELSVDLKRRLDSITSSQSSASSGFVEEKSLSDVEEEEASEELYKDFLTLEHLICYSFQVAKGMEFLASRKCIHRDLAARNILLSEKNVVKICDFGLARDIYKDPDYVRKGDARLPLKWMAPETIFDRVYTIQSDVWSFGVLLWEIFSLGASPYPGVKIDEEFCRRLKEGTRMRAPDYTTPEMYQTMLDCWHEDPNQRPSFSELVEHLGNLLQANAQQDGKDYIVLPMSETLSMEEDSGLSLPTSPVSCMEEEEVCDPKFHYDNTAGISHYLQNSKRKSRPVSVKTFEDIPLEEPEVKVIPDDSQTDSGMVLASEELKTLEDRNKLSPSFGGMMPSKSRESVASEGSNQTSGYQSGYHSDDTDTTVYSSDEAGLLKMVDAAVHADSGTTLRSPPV
Sequence of c-Src (P12931 whole entry, species assumed): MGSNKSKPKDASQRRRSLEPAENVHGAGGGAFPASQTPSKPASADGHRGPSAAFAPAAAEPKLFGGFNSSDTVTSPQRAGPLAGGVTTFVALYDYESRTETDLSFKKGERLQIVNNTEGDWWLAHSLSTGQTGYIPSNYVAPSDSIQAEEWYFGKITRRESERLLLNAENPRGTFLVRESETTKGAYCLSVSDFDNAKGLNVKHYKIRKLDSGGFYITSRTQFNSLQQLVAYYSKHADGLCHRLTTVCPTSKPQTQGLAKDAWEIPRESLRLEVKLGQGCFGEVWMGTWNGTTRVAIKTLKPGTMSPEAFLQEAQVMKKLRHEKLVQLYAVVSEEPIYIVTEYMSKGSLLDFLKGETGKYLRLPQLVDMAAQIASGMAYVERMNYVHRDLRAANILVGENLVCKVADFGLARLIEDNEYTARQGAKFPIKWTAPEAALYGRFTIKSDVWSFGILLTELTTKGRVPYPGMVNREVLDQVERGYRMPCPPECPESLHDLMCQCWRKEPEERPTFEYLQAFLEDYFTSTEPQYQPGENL
T1 sequence (P35968 20-1356): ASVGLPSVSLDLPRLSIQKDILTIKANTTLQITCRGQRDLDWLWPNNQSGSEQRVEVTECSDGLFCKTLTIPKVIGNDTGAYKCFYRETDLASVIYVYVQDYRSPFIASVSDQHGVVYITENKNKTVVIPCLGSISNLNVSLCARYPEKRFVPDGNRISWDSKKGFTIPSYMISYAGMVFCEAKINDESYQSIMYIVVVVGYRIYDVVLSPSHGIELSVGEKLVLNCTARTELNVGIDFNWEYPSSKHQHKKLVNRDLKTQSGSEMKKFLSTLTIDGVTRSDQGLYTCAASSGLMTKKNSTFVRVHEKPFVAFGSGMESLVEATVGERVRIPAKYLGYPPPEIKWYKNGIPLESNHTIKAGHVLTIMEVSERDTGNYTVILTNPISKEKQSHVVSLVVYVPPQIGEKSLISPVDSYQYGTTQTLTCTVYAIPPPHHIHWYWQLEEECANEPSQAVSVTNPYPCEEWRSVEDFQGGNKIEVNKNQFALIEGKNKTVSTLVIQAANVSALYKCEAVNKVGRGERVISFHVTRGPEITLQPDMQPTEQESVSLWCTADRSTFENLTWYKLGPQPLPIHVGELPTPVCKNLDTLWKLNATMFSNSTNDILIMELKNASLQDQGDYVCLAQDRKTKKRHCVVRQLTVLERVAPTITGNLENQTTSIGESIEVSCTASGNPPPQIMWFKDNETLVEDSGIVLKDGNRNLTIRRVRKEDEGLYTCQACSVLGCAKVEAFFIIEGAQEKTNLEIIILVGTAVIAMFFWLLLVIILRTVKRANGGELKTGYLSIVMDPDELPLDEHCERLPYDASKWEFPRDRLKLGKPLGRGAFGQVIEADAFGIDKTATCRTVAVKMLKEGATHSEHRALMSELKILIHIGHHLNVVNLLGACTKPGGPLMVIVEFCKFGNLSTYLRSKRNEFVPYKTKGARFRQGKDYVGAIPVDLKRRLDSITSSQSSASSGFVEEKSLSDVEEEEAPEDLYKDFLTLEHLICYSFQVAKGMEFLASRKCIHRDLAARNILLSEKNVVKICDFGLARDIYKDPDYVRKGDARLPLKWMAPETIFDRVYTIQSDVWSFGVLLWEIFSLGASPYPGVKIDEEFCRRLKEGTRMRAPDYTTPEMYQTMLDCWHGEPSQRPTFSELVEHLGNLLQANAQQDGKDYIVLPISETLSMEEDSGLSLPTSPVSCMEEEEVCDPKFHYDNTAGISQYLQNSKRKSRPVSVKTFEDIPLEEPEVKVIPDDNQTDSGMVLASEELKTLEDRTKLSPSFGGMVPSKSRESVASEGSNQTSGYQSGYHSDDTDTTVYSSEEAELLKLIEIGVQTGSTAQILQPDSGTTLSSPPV

Cn1ccc2ncnc(Oc3ccc(NC(=O)Nc4cccc(C(F)(F)F)c4)c(F)c3)c21 [III]
IC50 [1]: 6.2 nM

CNC(=O)c1cc(Oc2ccc(NC(=O)Nc3ccc(Cl)c(C(F)(F)F)c3)cc2)ccn1 [Sorafenib]
IC50 [2]: 57 nM
IC50 [3]: 50 nM
IC50 [4]: 25 nM
inhibition at 1 µM ([5]; read-out: Inhibition %, c-Raf, reference inhibitor): 92%
IC50 [6]: 33 nM
Histopathological examination of liver, kidney, heart and brain samples [7]: Degenerative changes were found in the hepatocytes and hippocampus
Histopathological examination of EAC tumor sections (necrosis) ([8]; 10 mg/kg): wide severe necrosis
IC50 [9]: 68 nM

Cc1ccc(NC(=O)Nc2ccc(Oc3ncnc4sc5c(c34)CCCC5)cc2)cc1Cl [Compound 21e]
VEGFR-2 phosphorylation in EAC solid tumor [10]: decreased VEGFR-2 phosphoryaltion
activity at 10 µM ([11]; read-out: % Cell growth): 54%
inhibition at 10 µM ([11]; read-out: % Cell inhibition): 46%
inhibition at 10 µM [12]: 6%
inhibition at 10 µM [13]: 64%
inhibition at 10 µM [14]: 91%
Active caspase 3 levels in EAC solid tumor [15]: increased active caspase 3 levels
inhibition at 10 µM [5]: 71%
IC50 [16]: 21 nM
%MVD in EAC solid tumor [17]: reduction of %MVD
Brain Index ([7]; 5 mg/kg/day po): 0.0167 ± 0.002
Heart Index ([7]; 5 mg/kg/day po): 0.0044 ± 0.0013
Kidney Index ([7]; 5 mg/kg/day po): 0.012 ± 0.002
Liver Index ([7]; 5 mg/kg/day po): 0.048 ± 0.006
Brain Index ([7]; 10 mg/kg/day po): 0.0174 ± 0.002
Heart Index ([7]; 10 mg/kg/day po): 0.0056 ± 0.0009
Kidney Index ([7]; 10 mg/kg/day po): 0.013 ± 0.002
Liver Index ([7]; 10 mg/kg/day po): 0.057 ± 0.007
Histopathological examination of liver, kidney, heart and brain samples [7]: without any histopathological alterations in liver, kidney and brain
Toxicity (overall statement) ([7]; oral, 5 and 10 mg/kg/day for 8 consecutive days): did not show any noticeable toxicity
Antiangiogenic effect in Miles vascular permeability assay [18]: confirmed the antiangiogenic effects
Tumor Index ([8]; 5 mg/kg/day po, 8 consecutive days, mean ± SD, n = 6): 0.041 ± 0.007
TGI (%) ([8]; 5 mg/kg/day po): 79.1%
Histopathological examination of EAC tumor sections (necrosis) ([8]; 5 mg/kg): moderate diffuse necrosis
TGI (%) ([8]; 10 mg/kg/day po): 82.7%
Histopathological examination of EAC tumor sections (necrosis) ([8]; 10 mg/kg): severe necrosis in a wide area
